This note sets out measurements from patent publication US7531530B2, “Therapeutic compounds” (Cancer Research Technology Limited, priority 2003, dated 2009).

Each structure is given as a SMILES string. Bounds are passed on as bounds.

Data set [1] in a line: Plasma and tumour pharmacokinetics in mice bearing SW620 xenografts. In kind it is in vivo.
Data set [2] deals with T1, PARP (pbl parp) (Mus musculus, UniProt P11103).
T1 construct: from tissue; host or cells: peripheral blood lymphocytes of treated mice
T1 sequence (P11103 whole entry): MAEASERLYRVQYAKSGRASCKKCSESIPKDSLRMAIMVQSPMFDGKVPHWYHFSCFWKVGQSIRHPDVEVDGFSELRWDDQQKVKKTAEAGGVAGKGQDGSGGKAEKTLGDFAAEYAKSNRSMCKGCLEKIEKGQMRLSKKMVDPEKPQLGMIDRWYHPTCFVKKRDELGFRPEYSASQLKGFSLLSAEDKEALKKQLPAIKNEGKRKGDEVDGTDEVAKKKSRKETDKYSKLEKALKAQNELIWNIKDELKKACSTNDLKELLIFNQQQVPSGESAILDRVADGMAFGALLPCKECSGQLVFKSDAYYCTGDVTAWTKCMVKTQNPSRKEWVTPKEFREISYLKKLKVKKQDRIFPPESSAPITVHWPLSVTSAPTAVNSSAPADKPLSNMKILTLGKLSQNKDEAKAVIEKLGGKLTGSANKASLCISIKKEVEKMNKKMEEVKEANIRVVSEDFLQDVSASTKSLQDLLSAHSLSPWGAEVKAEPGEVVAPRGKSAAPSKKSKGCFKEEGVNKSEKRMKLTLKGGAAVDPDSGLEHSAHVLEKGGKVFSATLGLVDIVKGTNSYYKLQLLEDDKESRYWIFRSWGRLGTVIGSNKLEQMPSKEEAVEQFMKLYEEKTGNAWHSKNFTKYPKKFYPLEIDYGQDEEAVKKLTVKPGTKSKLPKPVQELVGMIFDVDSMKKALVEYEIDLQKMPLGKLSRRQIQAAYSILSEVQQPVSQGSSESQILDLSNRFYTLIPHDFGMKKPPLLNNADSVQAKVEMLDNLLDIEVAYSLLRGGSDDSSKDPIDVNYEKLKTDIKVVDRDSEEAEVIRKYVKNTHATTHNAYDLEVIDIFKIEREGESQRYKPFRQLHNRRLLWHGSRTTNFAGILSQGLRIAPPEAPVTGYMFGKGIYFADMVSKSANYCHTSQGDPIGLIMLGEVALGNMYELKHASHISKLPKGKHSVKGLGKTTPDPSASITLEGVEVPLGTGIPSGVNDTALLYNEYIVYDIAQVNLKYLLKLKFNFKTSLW
Nature of the data set: PARP activity in peripheral blood lymphocytes of formula I-phosphate treated mice (10H antibody). In kind it is in vivo.

Data set [3] addresses PARP (tumour PARP) (Homo sapiens, UniProt P09874). Nature of the data set: PARP activity in SW620 tumour homogenates of formula I-phosphate treated mice (10H antibody). In kind it is in vivo.
Data set [4] is described as follows: Solubility. In kind it is physicochemical. To be noted: phosphate salt versus parent compound.
For data set [5], the target named is T2, PARP (Mus musculus, UniProt P11103).
T2 construct: endogenous in cells; host or cells: L1210 cells
T2 sequence (P11103 whole entry): as above
Nature of the data set: Cellular PARP activity assay, permeabilised L1210 cells. The format is cell-based. To be noted: L1210 cells permeabilised with digitonin prior to adding the inhibitor. As to the method: (§1) Exponentially growing cells were exposed to 1% DMSO in culture medium (control) or a compound of formula I or III in 1% DMSO at the concentrations indicated in FIG. 4 to cells permeabilised with digitonin, or intact cells for 20 minutes prior to washing and digitonin-permeabilization. PARP activity was measured by incorporation of a [32P] labelled NAD+ substrate into TCA precipitateble polymers after stimulation by the addition of a blunt-ended oligonucleotide and compared with non-oligonucleotide-stimulated cells. PARP activity in tumour homogenates (1 in 40 in isotonic buffer) from formula III-treated mice was measured in the same way. PARP activity in pbls and tumour homogenates from formula I-phosphate treated mice was measured by immunological detection of polymer using the 10H antibody. Briefly, tumour homogenates diluted to up to 1:1000 in isotonic buffer were incubated with 350 μM NAD for 6 min and blotted onto nitrocellulose membrane. The poly(ADP-ribose) (PAR) polymer formation was quantified by chemiluminescence detection using a Fuji LAS3000 UV Illuminator by reference to serial dilutions of a PAR standard, following incubation with 10H antibody to PAR and a secondary anti-mouse antibody.

In data set [6] the target is T3, PARP (tumour PARP act) (Homo sapiens, UniProt P09874).
T3 construct: from tissue; host or cells: SW620 xenograft tumour homogenates from treated mice
T3 sequence (P09874 whole entry): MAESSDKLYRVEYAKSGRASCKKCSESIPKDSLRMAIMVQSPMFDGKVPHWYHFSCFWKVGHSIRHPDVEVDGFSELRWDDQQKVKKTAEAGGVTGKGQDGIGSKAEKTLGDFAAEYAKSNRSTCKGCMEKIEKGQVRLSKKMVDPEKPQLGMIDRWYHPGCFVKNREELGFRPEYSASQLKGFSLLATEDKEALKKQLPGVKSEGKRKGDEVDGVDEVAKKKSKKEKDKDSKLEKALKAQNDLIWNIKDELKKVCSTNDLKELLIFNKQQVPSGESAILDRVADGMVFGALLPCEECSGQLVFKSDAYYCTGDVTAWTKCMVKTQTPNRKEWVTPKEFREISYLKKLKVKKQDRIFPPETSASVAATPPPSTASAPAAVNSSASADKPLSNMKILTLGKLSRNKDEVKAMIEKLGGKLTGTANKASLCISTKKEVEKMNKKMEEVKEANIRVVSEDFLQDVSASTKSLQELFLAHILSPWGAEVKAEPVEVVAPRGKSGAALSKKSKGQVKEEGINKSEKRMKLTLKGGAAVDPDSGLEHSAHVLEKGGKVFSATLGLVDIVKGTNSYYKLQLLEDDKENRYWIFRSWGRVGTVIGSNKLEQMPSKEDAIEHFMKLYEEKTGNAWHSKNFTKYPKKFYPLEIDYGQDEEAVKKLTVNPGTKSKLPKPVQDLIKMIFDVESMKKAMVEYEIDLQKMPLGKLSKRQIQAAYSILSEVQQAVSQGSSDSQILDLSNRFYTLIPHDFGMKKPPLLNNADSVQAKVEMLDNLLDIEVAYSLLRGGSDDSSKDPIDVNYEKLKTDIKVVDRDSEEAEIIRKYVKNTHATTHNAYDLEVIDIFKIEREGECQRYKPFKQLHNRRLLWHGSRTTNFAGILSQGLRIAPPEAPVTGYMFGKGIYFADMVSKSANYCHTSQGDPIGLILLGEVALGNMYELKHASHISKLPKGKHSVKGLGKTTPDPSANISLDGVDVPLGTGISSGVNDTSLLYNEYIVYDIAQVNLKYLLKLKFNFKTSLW
Nature of the data set: PARP activity in SW620 tumour homogenates of formula III-treated mice ([32P] NAD+ incorporation). In kind it is in vivo. To be noted: formula III 10 mg/kg intraperitoneal; SW620 xenografts. Here is the method:
as §1

Data set [7] concerns SW620 xenografts. Briefly: Tumour growth in mice bearing SW620 xenografts. The format is in vivo. To be noted: formula III 15 mg/kg daily×5 in conjunction with temozolomide. The source says: FIG. 8 is a graph showing the tumour growth (median relative tumour volume) in mice bearing SW620 xenografts following treatment with formula III in combination with temozolomide (TMZ) and with TMZ alone;
FIG. 9 is a graph showing the tumour growth (median relative tumour volume) of mice bearing SW620 xenografts following treatment with formula I-phosphate in combination with temozolomide (TMZ) and with formula I-phosphate and TMZ alone;
However, shortly after this time the tumour size begins to increase.

Data set [8] concerns the target T2, PARP. Nature of the data set: Cellular PARP activity assay, intact L1210 cells. To be noted: intact L1210 cells exposed for 20 minutes prior to permeabilisation. In kind it is cell-based. As to the method:
as §1

[9] abbreviates: formula I-phosphate 1 mg/kg, compared with 10 mg/kg.
Where [10] appears, read: formula I-phosphate 10 mg/kg intraperitoneal, 24 hr after administration.
[11] abbreviates: formula I-phosphate 10 mg/kg intraperitoneal, thirty minutes after administration.
The mark [12] stands for this setting: formula III 10 mg/kg intraperitoneal.

PARP (tumour PARP), sequence (P09874 whole entry): as above

Take `CNCc1ccc(-c2[nH]c3cc(F)cc4c3c2CCNC4=O)cc1.O=P(O)(O)O` [formula I-phosphate]: in data set [1] (setting [9]), the “plasma concentration of formula I” value is “lower levels” and the “tumour concentration of formula I” value is recorded as “lower levels”. In data set [1] (formula I-phosphate 10 mg/kg intraperitoneal), the “decrease of concentration with time, plasma versus tumour” value is “more rapidly in the plasma than in the tumour”. In data set [1] (setting [10]), the “plasma concentration of parent compound (formula I)” value was “none could be detected” and the “tumour concentration of parent compound (formula I)” value is reported as “significant levels were detectable”. In data set [1] (setting [11]), the “plasma concentration of parent compound (formula I)” value is on record as “high levels” and the “tumour concentration of parent compound (formula I)” value is on record as “high levels”. Further, the “effect on PARP activity in pbls” value in data set [2] (setting [9]) is “less pronounced effect”. In addition, the “PARP activity in pbls” value in data set [2] (formula I-phosphate 10 mg/kg intraperitoneal, up to 24 hr) is recorded as less than 50 % control. For the same molecule, in data set [3] (setting [9]), the “effect on PARP activity in tumour” value is recorded as “less pronounced effect”. Further, the “PARP activity in tumour” value in data set [3] (formula I-phosphate 10 mg/kg intraperitoneal, up to 24 hr, SW620 xenografts) is less than 50 % control. Also, the “solubility relative to formula I” value in data set [4] was “increases the solubility”.

As to `CN(C)Cc1ccc(-c2nc3cccc4c3n2CCNC4=O)cc1` [formula III], the “PARP inhibitory activity, formula I compared with formula III” value in data set [5] was “no difference”. Further, in data set [1] (setting [12]), the “distribution to the tumour” value is reported as “distributes well to the tumour” and the “retention in tumour versus plasma with time” value is reported as “preferentially retained with time”. For the same molecule, in data set [6], the “PARP activity in the tumour” value is reported as “inhibits PARP activity”. For the same molecule, in data set [7], the “tumour outcome at autopsy at the end of the experiment” value is reported as “complete tumour regression”.

On to `CNCc1ccc(-c2[nH]c3cc(F)cc4c3c2CCNC4=O)cc1` [formula I], for which the “PARP inhibitory activity, formula I compared with formula III” value was “no difference” in data set [5] and “more potent” in data set [8].
